Measurements as given in US11930819B2, “Antimicrobial compositions with enhanced efficacy” (ECOLAB USA INC., priority 2017, dated 2024).
“Also recorded” adds a separate entry of the source.

Columns and labels:
Type in all cases: cell-based
[1] = system: Serratia marcescens ATCC 14756; assay: in vitro Time Kill testing (ASTM E 2315), Serratia marcescens; details: 1.2% cationic surfactant with 0.6% benzalkonium chloride, Table 6
Experimental: (§1) In Examples 1-4, the survival of challenged organisms exposed to an antimicrobial test composition was measured using in vitro Time Kill testing, based on ASTM E 2315 Standard Guide for Assessment of Antimicrobial Activity Using a Time Kill Procedure. Utilizing this method, the inoculum is prepared by growing a microbial culture using a D/E agar medium. The microbial population then is washed from the agar with sterile physiological saline and the population of the microbial suspension is adjusted to around 10^8 colony forming units (cfu) per ml. An aliquot of the test formula, or a dilution thereof, is brought into contact with this known population of bacteria at ambient temperature. The test composition is neutralized after a set amount of time, which arrests the antimicrobial activity of the test sample. The log reduction from the original bacteria population is calculated using the following formula: log10 reduction=log10(control)−log10(test sample survivors) Each test was performed in duplicate and the average log reduction reported.
Once it was determined that cationic surfactants with chain lengths having 18 or less carbons provided enhanced microbiological efficacy, three such cationic surfactants were evaluated against Serratia marcescens, a Gram negative microorganism. […]

[2] = system: Serratia marcescens ATCC 14756; assay: Time Kill Efficacy, chelant comparison; details: chelant added to cationic active-containing base formula
Experimental: Testing was performed to assess performance of differing chelants. Multiple amino acid based chelants were tested in exemplary compositions of the invention and tested against a control formulation containing no chelant.
Formula 5A served as the control having no chelant. Formulas 5B and 5C included GLDA and MGDA, respectively, for comparative testing against each other and the control. The compositions were inoculated with Serratia marcescens ATCC 14756 for 30 seconds at room temperature. Before adding the antimicrobial compositions, the inoculum numbers were measured (CFO/mL). The average count was […] providing a log average of 8.06. The inoculated surface was contacted with the various formulations for 30 seconds and the log reduction was measured.

[3] = system: Escherichia coli ATCC 11229; assay: in vitro Time Kill testing (ASTM E 2315), cationic-compatible surfactants, Table 4; details: 1% surfactant in 0.2% benzalkonium chloride formula
Experimental: as §1, with “reported. The efficacy of formulations with differing cationic-compatible surfactants with the same alkyl chain length is outlined in Tables 3 and 4. In each instance, citric acid and/or potassium hydroxide were used to maintain a pH of 6, and water was added quantum satis. […]” for “reported.”

Compound	degree of microbiological efficacy [1]	effect of chelant on antimicrobial efficacy of base formula [2]	impact on microbiological efficacy [3]
CCCCCCCCCCCC[N+](C)(C)C.[Cl-] [Laurtrimonium chloride, Lauryl Trimethyl Ammonium Chloride]	highest degree of efficacy	–	–
O=C(O)CC[C@@H](C(=O)O)N(CC(=O)O)CC(=O)O [GLDA, Glutamic acid diacetic acid]	–	did not show any enhancement of antimicrobial efficacy	–
Coco Glucoside	–	–	negative impact on microbiological efficacy
CC(C(=O)O)N(CC(=O)O)CC(=O)O (stereo not drawn) [MGDA, Methylglycinediacetic acid]	–	significantly enhance the biocidal activity; also recorded: much higher log reduction	–
Cocamidopropyl Betaine	–	–	significant negative impact on microbiological efficacy
CCCCCCCCCCCCCCCC(=O)NCCC[N+](C)(C)C.[Cl-] [Palmitamidopropyl trimonium chloride, Palmitamidopropyl Trimonium Chloride]	lowest degree of microbiological efficacy	–	–
